Data from patent US20060251717A1, “Memantine Oral Dosage Forms” (priority 2003, published 2006).

Assay: Administration of memantine in 2 mg weekly increments to a patient suffering from glaucoma, tolerance observed
Assay type: in vivo
Conditions: 2 mg tablet for one week
Method: In certain cases, the initial administration of 5 mg of memantine, or the increase in the dosage by 5 mg increments, may be more than can be tolerated by the patient. […] The term adverse event refers to any undesirable side effect or toxic effect associated with memantine. In relation to embodiments of this type, it is preferable that the dose of memantine is increase by an increment of about 0.25 to about 0.5 mg each day until the maintenance dose is reached.
(§1) To a patient suffering from glaucoma, is administered a tablet comprising 2 mg of memantine is administered for one week. The patient then receives a tablet comprising a 4 mg dose for one week. The dose is increased by 2 mg each week until a 10 mg dose is reached at the beginning of the fifth week. […] The tablet comprising 10 mg of memantine is administered daily for as long as the drug is needed.
as §1, with “20” for “10”, “tenth” for “fifth”

CC12CC3CC(C)(C1)CC(N)(C3)C2 [memantine]
tolerance of the drug (dose increased by 2 mg each week until 10 mg at beginning of fifth week, first four weeks of administration): improved tolerance
tolerance of the drug (dose increased by 2 mg each week until 20 mg at beginning of tenth week, first nine weeks of administration): improved tolerance
